The values that follow are results of earlier work, collected in EP0839024B1, “MONENSIN FORMULATIONS” (Elli Lilly & Co.(NZ)Limited, priority 1995, dated 1997).

For data set [1] the following is noted: Example 1 of EP 0,139,595: 250 g mycelium containing 10% monensin, 1250 cc propylene glycol, room temperature, 2 hours, ultrasound; cited from earlier work.
For data set [2] the following is noted: as indicated in EP 0,139,595 (monensin and its sodium salt) and US Patent 3,715,372 (lasalocid); cited from earlier work.

SMILES strings stand for the structures.

As for `CC[C@@]1([C@@H]2O[C@@H]([C@H]3O[C@@](O)(CO)[C@H](C)C[C@@H]3C)C[C@@H]2C)CC[C@H]([C@]2(C)CC[C@]3(C[C@H](O)[C@@H](C)[C@@H]([C@@H](C)[C@@H](OC)[C@H](C)C(=O)O)O3)O2)O1` [monensin], the “monensin found in solution in propylene glycol” value in data set [1] is 50%. As to `CC[C@@H](C(=O)[C@@H](C)[C@@H](O)[C@H](C)CCc1ccc(C)c(O)c1C(=O)O)[C@H]1O[C@](CC)([C@H]2CC[C@](O)(CC)[C@H](C)O2)C[C@@H]1C` [lasalocid], the solubility in water result in data set [2] is “completely insoluble”.
